The values that follow come from US20220265845A1, “AMINOTHIOLESTER COMPOUNDS AND USES THEREOF” (ADVANCED BIODESIGN, priority 2019, published 2022).

The target of assay [1] is T1, Human recombinant ALDH1A1 (Homo sapiens, UniProt P00352).
T1 construct: purchased Creative BioMart, NY, USA
T1 sequence (P00352 1-501): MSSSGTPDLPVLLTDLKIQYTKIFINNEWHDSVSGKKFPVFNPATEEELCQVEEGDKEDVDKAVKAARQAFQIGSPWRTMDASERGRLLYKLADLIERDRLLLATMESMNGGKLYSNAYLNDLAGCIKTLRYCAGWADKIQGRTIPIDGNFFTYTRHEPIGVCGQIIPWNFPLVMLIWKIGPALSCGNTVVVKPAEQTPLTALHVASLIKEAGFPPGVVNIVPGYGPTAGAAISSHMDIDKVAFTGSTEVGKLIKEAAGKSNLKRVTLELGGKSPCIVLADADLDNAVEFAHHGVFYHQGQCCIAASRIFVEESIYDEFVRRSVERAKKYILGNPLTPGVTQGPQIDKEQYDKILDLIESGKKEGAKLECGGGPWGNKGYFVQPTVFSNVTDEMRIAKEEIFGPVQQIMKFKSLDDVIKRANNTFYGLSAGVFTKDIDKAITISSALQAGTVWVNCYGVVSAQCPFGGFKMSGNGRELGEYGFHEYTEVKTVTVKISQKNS
The experiment in a line: Enzymatic assay with human recombinant ALDH (NADH fluorescence), IC50. As to conditions: substrate Hexanal, NAD+, 37° C. In kind it is biochemical. As for the experimental part: (§1) Human recombinant ALDH1A1, ALDH1 A2, ALDH1A3, ALDH2 (Creative BioMart, NY, USA) were prepared at 1 mg/mL. The enzymatic reactions were performed using saturating concentrations of substrate. To test the enzymatic activity of the enzymes, 10 μL of enzyme was added into a reaction buffer containing 50 mM HEPES pH 7.2, 30 mM MgCl2, plus 20 mM NAD^+ cofactor and 2 mM Hexanal (Sigma-Aldrich, St. Louis, Mo., USA) in the presence or absence of the different tested compounds. Internal standards were prepared with Nicotinamide adenine dinucleotide reduce form (NADH, 500 μM, Sigma-Aldrich) in Reaction Buffer (50 mM HEPES pH 7.2, 30 mM MgCl2).
(§2) Time-dependent inhibition assays were performed for 0-2-5-10-15-20-30-45-60 min at 37° C. in 1 mL-quartz cuvette. The formation of NADH was monitored, reading samples at excitation wavelength=340 nm/emission wavelength=460 nm (fluorescence) for at least 600 sec using Cary Eclipse Varian fluorimeter.
Negative control consisted in the same reactions except that enzyme was not added (enzyme blank). To determine the slope for enzyme blank and calculate product concentration (Unit of fluorescence) the following formulae was used: […]
where Cst is the standard NADH concentration, Fst is the standard fluorescence and dF/dt is the slope of the time dependent fluorescence (S. Sotobodowska et al, 2012). The specific activity of the enzymes (μmol/min·mg-U/mg) in the absence of presence of inhibitors was calculated as follows: […]

Assay [2] relates to ALDH class 1 recombinant enzymes. Put plainly: Comparison with DIMATE on ALDH class 1 recombinant enzymes. The class given is biochemical, human. As to conditions: from IC50 of Table 4. On the procedure:
as §1, §2
The kinetic data are expressed as the mean±standard error from three independent determination. Kinact/Ki was determined from Kobs versus concentration of the inhibitor [I] plots. […] The Kobs were obtained from negative exponential fit using non-linear regression program GraFit 5.0 (Erithacus software).

The test system of another assay is HL-60. The experiment in a line: Cell viability assay (Resazurin), cytotoxicity in HL60 cells. In kind it is cell-based. Particulars: Homo sapiens, HL-60, read-out: IC50 at 48 h, 48 hours of incubation. On the procedure:
Cell lines. Leukemic cell line, HL-60 (derived from a person with AML-M2), was used for determination of drug efficacy. Cells were obtained from the European Collection of Cell Cultures (ECACC). All cells were cultivated in appropriate media according to supplier recommendations.
Cell Viability assay, 96-well format. Cells were seeded into 96-well cell culture plates at concentrations required to ensure approximately 80% confluence in control (untreated cells) at the end of experiment (0.5×10^4-5×10^4 cell/well).
The sensitivity towards compounds according to the invention was determined using different concentrations of each compound ranging from 0.5 to 100 μM (0.5, 1, 2, 5, 10, 15, 20, 25, 30, 40, 50, 100 μM). Following 48 hours of incubation at 37° C. in a humidified atmosphere containing 5% CO2, the growth-inhibitory effect of compounds was analyzed using Resazurin, according to manufactures instructions.
To ensure good data quality and to minimize impact of pipetting errors, each compounds concentration was assessed based on mean fluorescence intensity from 8 separate wells. Compounds response were quantified by the half maximal inhibitory concentration (IC50) for each particular cell line, and determined by non-linear regression analysis of log-dose/response curves.
Statistical Analysis. Values were expressed as mean±SD or frequencies and proportions. Cell viability curves were determined using four parameter regression line. Differences between groups were determined by unpaired t test, Chi-square, Fisher's exact test or ANOVA, where appropriate. P<0.05 was considered statistically significant. Analysis was performed using GraphPad prism version 5.0 (GraphPad software, San Diego Calif. USA).

Take `CSC(=O)C#CC(C)(C)N(C)C` [DIMATE, S-methyl 4-(dimethylamino)-4-methylpent-2-ynethioate, reference compound]: in assay [1], the IC50 was determined as 37 ± 5 µM.
As to `CSC(=O)C#CC(C)(C)N(C)CCOCc1ccccc1` [Example 3, S-methyl 4-[2-benzyloxyethyl(methyl)amino]-4-methyl-pent-2-ynethioate], the “Inhibition of the ALDH class 1 enzymes compared with DIMATE” value in assay [2] is reported as “higher inhibition”. Also, the results for the IC50 (with HL-60; in assay [1]) were 1.17 µM and 3.8 ± 1.1 µM, respectively.
For the compound `CSC(=O)C#CC(C)(C)N(C)CCOCc1ccc(C)c(C)c1` [Example 5, S-methyl 4-[2-[(3,4-dimethylphenyl)methoxy]ethyl-methyl-amino]-4-methyl-pent-2-ynethioate], the “Inhibition of the ALDH class 1 enzymes compared with DIMATE” value in assay [2] is given as “higher inhibition”. The 50% inhibitory concentration (IC50) in the assay on HL-60 was determined as 4.72 µM; in assay [1], 4.3 ± 0.4 µM.

As a reminder, the IC50 is the concentration that inhibits the measured activity by half.
